From US20240294523A1, “HETEROCYCLIC LACTAM COMPOUND, AND PREPARATION METHOD THEREFOR AND PHARMACEUTICAL USE THEREOF” (Genfleet Therapeutics (Shanghai) Inc., priority 2021, published 2024)

The molecules below were run on U937 cells (assay: Inhibition of TNF-α-induced programmed necrosis of U937 cells (CellTiter-Glo)). Settings: U-937, human TNF-α + Q-VD-Oph, 48 hours.
Format: cell-based
Protocol: The U937 cell line used in the following test examples was from ATCC, number: CRL-1593.2, batch number: 63479999, culture medium: RPMI-1640+10% FBS.
(§1) The reagents used, suppliers and product numbers of the reagents were as follows: RPMI-1640, Gibco, 11875-093; FBS, Gibco, 10099-141; Trypsin-EDTA, Gibco, 25200-072; PS, Gibco, 15140-122; CellTiter Glo , Progema, G7573; DMSO, VWR AMRESCO, 0231-500ML; TNF-α protein (human, recombinant), Peprotech, 300-01A; Q-VD-Oph, MCE, HY-12305; V-shaped bottom plate, Corning, 3894; 384-well low-flange white flat-bottom microplate, Corning, 3570; RIPK1, Eurofins, 16-022; MOPS, BDH, 441644J; EDTA, Sigma, E5134; Myelin basic protein, Sigma, M1891-25.00 MG; Magnesium acetate, Merck, DU008026; ATP (non-radioactive label), Sigma, A-7699; ATP (radioactive label), Hartmann Analytic, DU008054; Phosphoric acid, Metlab, DU003000; Z-VAD: Shanghai Yuang Chemical Industry, YA02401.
The compounds to be tested were dissolved in DMSO and diluted with DMSO into a series of concentration gradients. 5000 U937 cells/well were seeded in a 384-well white plate. Compounds of corresponding concentrations were added to each well and mixed evenly with the cells. At the same time, human TNF-a and Q-VD-Oph were added to induce programmed necrosis of the cells. The cells were placed at 37° C., 5% CO2 incubator for 48 hours. CellTiter-Glo reagent was used for detection, and the chemiluminescence reading was detected using a microplate reader after sufficient lysis reaction. The test results were calculated using the formula SR (%)=(RLU compound−RLU blank)/(RLU high control−RLU blank)×100%. The survival rate and the final concentration of the corresponding compound were drawn into a curve and fitted using four parameters. Inhibitory IC50 on TNF-α-induced cell necrosis of the compounds were calculated.

SMILES	IC50 [nM]
O=C1c2nn(Cc3ccccc3Cl)c(Cl)c2CCN1CC(F)F [Compound Z8, 3-chloro-2-(2-chlorobenzyl)-6-(2,2-difluoroethyl)-2,4,5,6-tetrahydro-7H-pyrazolo[3,4-c]pyridin-7-one]	253
CC(C(F)F)N1CCc2c(nn(Cc3ccccc3OC(F)(F)F)c2Cl)C1=O (stereo not shown) [Compound Z12, 3-chloro-6-(1,1-difluoropropan-2-yl)-2-(2-(trifluoromethoxy)benzyl)-2,4,5,6-tetrahydro-7H-pyrazolo[3,4-c]pyridin-7-one]	1380
CC(C(F)F)N1CCc2c(C(F)(F)F)nn(Cc3c(F)cccc3F)c2C1=O (stereo not shown) [Compound Z17, 1-(2,6-difluorobenzyl)-6-(1,1-difluoropropan-2-yl)-3-(trifluoromethyl)-1,4,5,6-tetrahydro-7H-pyrazolo[3,4-c]pyridin-7-one]	1820
O=C1c2nn(Cc3c(F)cccc3F)c(Cl)c2CCN1C1(C(F)F)CC1 [Compound Z10, 3-chloro-2-(2,6-difluorobenzyl)-6-(1-(difluoromethyl)cyclopropyl)-2,4,5,6-tetrahydro-7H-pyrazolo[3,4-c]pyridin-7-one]	676
CC(C(F)F)N1CCc2c(nn(Cc3cc(F)cc(F)c3)c2Cl)C1=O (stereo not shown) [Compound Z14, 3-chloro-2-(3,5-difluorobenzyl)-6-(1,1-difluoropropan-2-yl)-2,4,5,6-tetrahydro-7H-pyrazolo[3,4-c]pyridin-7-one]	982
CC1(C)CC(N2CCc3c(nn(Cc4c(F)cccc4F)c3Cl)C2=O)CCO1 (stereo not shown) [Compound Z25, 3-chloro-2-(2,6-difluorobenzyl)-6-(2,2-dimethyltetrahydro-2H-pyran-4-yl)-2,4,5,6-tetrahydro-7H-pyrazolo[3,4-c]pyridin-7-one]	464
C[C@@H](C(F)F)N1CCc2c(nn(Cc3c(F)cccc3F)c2Cl)C1=O (single isomer, unassigned) [Compound Z9-1]	256
O=C1c2nn(Cc3c(F)cccc3F)c(Cl)c2CCN1CC1(F)CC1 [Compound Z11, 3-chloro-2-(2,6-difluorobenzyl)-6-((1-fluorocyclopropyl)methyl)-2,4,5,6-tetrahydro-7H-pyrazolo[3,4-c]pyridin-7-one]	1600
O=C1c2nn(Cc3ccccc3F)c(Cl)c2CCN1CC(F)F [Compound Z2, 3-chloro-6-(2,2-difluoroethyl)-2-(2-fluorobenzyl)-2,4,5,6-tetrahydro-7H-pyrazolo[3,4-c]pyridin-7-one]	279
O=C1c2nn(Cc3c(F)cccc3F)c(Cl)c2CCN1C1CCOCC1 [Compound Z23, 3-chloro-2-(2,6-difluorobenzyl)-6-(tetrahydro-2H-pyran-4-yl)-2,4,5,6-tetrahydro-7H-pyrazolo[3,4-c]pyridin-7-one]	311
O=C1c2nn(Cc3c(F)cccc3F)c(Cl)c2CCN1C(C(F)F)C1CC1 (stereo not shown) [Compound Z13, 3-chloro-6-(1-cyclopropyl-2,2-difluoroethyl)-2-(2,6-difluorobenzyl)-2,4,5,6-tetrahydro-7H-pyrazolo[3,4-c]pyridin-7-one]	120
N#CCC1(N2CCc3c(nn(Cc4c(F)cccc4F)c3Cl)C2=O)CC1 [Compound Z7, 2-(1-(3-chloro-2-(2,6-difluorobenzyl)-7-oxo-2,4,5,7-tetrahydro-6H-pyrazolo[3,4-c]pyridin-6-yl)cyclopropyl)acetonitrile]	1830
CC(C(F)F)N1CCc2c(nn(Cc3ccccc3F)c2Cl)C1=O (stereo not shown) [Compound Z19, 3-chloro-6-(1,1-difluoropropan-2-yl)-2-(2-fluorobenzyl)-2,4,5,6-tetrahydro-7H-pyrazolo[3,4-c]pyridin-7-one]	168
CC(C(F)F)N1CCc2c(nn(Cc3cc(F)c(F)cc3F)c2Cl)C1=O (stereo not shown) [Compound Z21, 3-chloro-6-(1,1-difluoropropan-2-yl)-2-(2,4,5-trifluorobenzyl)-2,4,5,6-tetrahydro-7H-pyrazolo[3,4-c]pyridin-7-one]	534
O=C1c2nn(Cc3c(F)ccc(F)c3F)c(Cl)c2CCN1CC(F)F [Compound Z6, 3-chloro-6-(2,2-difluoroethyl)-2-(2,3,6-trifluorobenzyl)-2,4,5,6-tetrahydro-7H-pyrazolo[3,4-c]pyridin-7-one]	482
O=C1c2nn(Cc3ccccc3)c(Cl)c2CCN1CC(F)F [Compound Z1, 2-benzyl-3-chloro-6-(2,2-difluoroethyl)-2,4,5,6-tetrahydro-7H-pyrazolo[3,4-c]pyridine-7-one]	461
CCC(C(F)F)N1CCc2c(nn(Cc3c(F)cccc3F)c2Cl)C1=O (stereo not shown) [Compound Z15, 3-chloro-2-(2,6-difluorobenzyl)-6-(1,1-difluorobutan-2-yl)-2,4,5,6-tetrahydro-7H-pyrazolo[3,4-c]pyridin-7-one]	127
O=C1c2nn(Cc3c(F)cccc3F)c(Cl)c2CCN1CC(F)F [Compound Z3, 3-chloro-2-(2,6-difluorobenzyl)-6-(2,2-difluoroethyl)-2,4,5,6-tetrahydro-7H-pyrazolo[3,4-c]pyridin-7-one]	129
CCC(=O)N1CCc2c(nn(Cc3c(F)cccc3F)c2Cl)C1=O [Compound Z20, 3-chloro-2-(2,6-difluorobenzyl)-6-propionyl-2,4,5,6-tetrahydro-7H-pyrazolo[3,4-c]pyridin-7-one]	300
CC(COc1ccc(C#N)cn1)N1CCc2c(nn(Cc3ccccc3)c2Cl)C1=O (stereo not shown) [Compound Z16, 6-(2-(2-benzyl-3-chloro-7-oxo-2,4,5,7-tetrahydro-6H-pyrazolo[3,4-c]pyridine-6-yl)propoxy)nicotinonitrile]	2950
C[C@H](C(F)F)N1CCc2c(nn(Cc3c(F)cccc3F)c2Br)C1=O (single isomer, unassigned) [Compound Z24-1]	119
N#CCCN1CCc2c(nn(Cc3c(F)cccc3F)c2Cl)C1=O [Compound Z4, 3-(3-chloro-2-(2,6-difluorobenzyl)-7-oxo-2,4,5,7-tetrahydro-6H-pyrazolo[3,4-c]pyridine-6-yl)propionitrile]	1360
CC(=O)N1CCc2c(nn(Cc3c(F)cccc3F)c2Cl)C1=O [Compound Z26, 6-acetyl-3-chloro-2-(2,6-difluorobenzyl)-2,4,5,6-tetrahydro-7H-pyrazolo[3,4-c]pyridin-7-one]	361
CC(C(F)F)N1CCc2c(nn(Cc3c(F)cc(F)cc3F)c2Cl)C1=O (stereo not shown) [Compound Z22, 3-chloro-6-(1,1-difluoropropan-2-yl)-2-(2,4,6-trifluorobenzyl)-2,4,5,6-tetrahydro-7H-pyrazolo[3,4-c]pyridin-7-one]	222
CC(C(F)F)N1CCc2c(nn(Cc3c(F)cccc3F)c2Br)C1=O (stereo not shown) [Compound Z24, 3-bromo-2-(2,6-difluorobenzyl)-6-(1,1-difluoropropan-2-yl)-2,4,5,6-tetrahydro-7H-pyrazolo[3,4-c]pyridin-7-one]	48.9
O=C1c2nn(Cc3cc(F)ccc3F)c(Cl)c2CCN1CC(F)F [Compound Z5, 3-chloro-2-(2,5-difluorobenzyl)-6-(2,2-difluoroethyl)-2,4,5,6-tetrahydro-7H-pyrazolo[3,4-c]pyridin-7-one]	205
CC(C(F)F)N1CCc2c(nn(Cc3ccc(F)cc3F)c2Cl)C1=O (stereo not shown) [Compound Z18, 3-chloro-2-(2,4-difluorobenzyl)-6-(1,1-difluoropropan-2-yl)-2,4,5,6-tetrahydro-7H-pyrazolo[3,4-c]pyridin-7-one]	194

These molecules were tested against RIPK1 (Homo sapiens (Human), UniProt Q13546) (assay: Inhibitory activity against RIPK1 enzyme (33P-ATP, MBP substrate)). Settings: 36 nM RIPK1, 0.33 mg/ml MBP, 155 μM ATP, 2 hours, room temperature.
Chain of RIPK1 (Q13546 whole entry): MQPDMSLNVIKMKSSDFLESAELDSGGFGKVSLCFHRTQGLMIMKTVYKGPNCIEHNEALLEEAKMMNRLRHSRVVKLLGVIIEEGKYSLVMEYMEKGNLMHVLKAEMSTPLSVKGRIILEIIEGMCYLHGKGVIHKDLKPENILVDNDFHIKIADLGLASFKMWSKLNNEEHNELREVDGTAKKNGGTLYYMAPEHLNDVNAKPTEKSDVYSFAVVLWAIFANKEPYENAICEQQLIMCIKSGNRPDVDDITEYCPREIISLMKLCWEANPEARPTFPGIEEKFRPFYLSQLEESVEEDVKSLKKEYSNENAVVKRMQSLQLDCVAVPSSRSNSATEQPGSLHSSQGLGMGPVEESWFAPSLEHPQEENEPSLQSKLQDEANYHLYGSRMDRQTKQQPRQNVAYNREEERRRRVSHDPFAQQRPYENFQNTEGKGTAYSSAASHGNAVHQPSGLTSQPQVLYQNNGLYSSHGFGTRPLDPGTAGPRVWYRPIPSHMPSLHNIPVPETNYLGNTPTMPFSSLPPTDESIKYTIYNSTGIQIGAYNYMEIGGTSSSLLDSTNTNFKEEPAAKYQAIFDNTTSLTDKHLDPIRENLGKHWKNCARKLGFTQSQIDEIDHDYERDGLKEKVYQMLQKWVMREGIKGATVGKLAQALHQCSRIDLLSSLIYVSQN
Format: biochemical
Protocol: as §1
The compound to be tested was dissolved in DMSO to prepare a 10 mM stock solution, diluted 3.16 times with DMSO into a series of concentration gradients, and then MOPS pH 7.0 buffer solution was used to dilute 50 times to prepare a working solution, and mixed well with 36 nM RIPK1 (final concentration), 0.33 mg/ml substrate MBP. Afterwards, 10 mM magnesium ions and 155 μM phosphorus 33 isotope-labeled ATP were added to react, The final concentration of DMSO was 2%. After the reaction was proceeded at room temperature for 2 hours, phosphoric acid was added to terminate. The final reaction system was processed and detected using a liquid scintillation counter. After the test results are subtracted from the blank control and compared with the reading value of the control group to convert to the activity percentage, which was plotted as a curve with the final concentration of the corresponding compound, and four-parameter fitting was used to obtain the IC50 of the compound that inhibits RIPK1 enzyme activity.

SMILES	IC50 [nM]
O=C1c2nn(Cc3ccccc3F)c(Cl)c2CCN1CC(F)F [Compound Z2, 3-chloro-6-(2,2-difluoroethyl)-2-(2-fluorobenzyl)-2,4,5,6-tetrahydro-7H-pyrazolo[3,4-c]pyridin-7-one]	30
O=C1c2nn(Cc3ccccc3)c(Cl)c2CCN1CC(F)F [Compound Z1, 2-benzyl-3-chloro-6-(2,2-difluoroethyl)-2,4,5,6-tetrahydro-7H-pyrazolo[3,4-c]pyridine-7-one]	65
O=C1c2nn(Cc3c(F)cccc3F)c(Cl)c2CCN1CC(F)F [Compound Z3, 3-chloro-2-(2,6-difluorobenzyl)-6-(2,2-difluoroethyl)-2,4,5,6-tetrahydro-7H-pyrazolo[3,4-c]pyridin-7-one]	48
O=C1c2nn(Cc3ccccc3)c(Cl)c2CCCN1CC(F)F [Compound Z42]	184
